Measured values reported in a melting point compilation (Tetko et al.; mined from patent text by program, amines drawn as free bases though some values may be those of a salt).

| Structure (SMILES) | melting point |
| --- | --- |
| Fc1ccc(Nc2ncnc3[nH]ccc23)cc1Cl | 274 to 275 °C |
| CCCC(NS(=O)(=O)c1ccc(NC(C)=O)cc1)P(=O)(Oc1ccccc1)Oc1ccccc1 (stereo unspecified) | 183 to 186 °C |
| Nc1nc(OCc2ccc(F)cc2)ncc1F | 129 to 131 °C |
| O=C(NC1CCN(CCC(O)C(=O)C(O)CCN2CCC(NC(=O)c3ccccc3)CC2)CC1)c1ccccc1 (stereo unspecified) | 154 to 155 °C |
| CCOc1ccc2c(c1)C(C)(c1cc(C(=O)N3CCN(C)CC3)ccc1Cl)C(=O)N2S(=O)(=O)c1ccc(C(=O)NC(C)(C)C)cc1OC (stereo unspecified) | 96 °C |
| Nc1ccc(Sc2ccc(Cl)cc2)nc1 | 55 to 57 °C |
| CC(=O)OCCOc1ccc2oc3cc(C#N)ccc3c(=O)c2c1 | 194 to 196 °C |
| CC(c1cccc(Cl)c1)(n1ccnc1)C1(O)C2CC3CC(C2)CC1C3 (stereo unspecified) | 121 °C |
| CC(=O)OC1CCC2(C)C(CCC3=C4C(=O)CC(C(C)CCCC(F)(C(F)(F)F)C(F)(F)F)C4(C)CCC32)C1 (stereo unspecified) | 187 to 188 °C |
| N=C(N)Nc1cc(Cl)ccc1N1CCOCC1 | 135 to 138 °C |
| Nc1ccc(Sc2c(NCC=Cc3ccccc3)cc(C(=O)O)cc2S(N)(=O)=O)cc1 | 228 to 232 °C |
| CC1(C)O[C@@H](CN=C2OCc3ccccc32)[C@H](CN=C2OCc3ccccc32)O1 | 204 °C |
| O=[N+]([O-])c1cc(C(F)(F)F)c(Cl)c([N+](=O)[O-])c1Nc1ncc(Cl)cc1Cl | 64 to 65 °C |
| COC(=O)N1C(=S)NC(C)=C(C(=O)OC(C)C)C1c1cccc([N+](=O)[O-])c1 (stereo unspecified) | 130 to 132 °C |
| Cc1nccn1CC(C)C(=O)c1cn(C)c2ccccc12 (stereo unspecified) | 205 to 207 °C |
| Cc1cccc(C(=O)NCC2CC2)c1NC(=O)c1cc(C(F)(F)F)nn1-c1ncccc1Cl | 199 °C |
| O=CCCc1cc(F)c2ncc(C(=O)NCc3ccc(Cl)cc3)c(O)c2c1 | 242 to 244 °C |
| O=C(c1cccs1)c1cnn2c(-c3cccc(-c4nnn(Cc5cccnc5)n4)c3)ccnc12 | 95 °C |
| CS(=O)(=O)c1ccc(C(O)C(CF)NC(=O)C(F)F)cc1 (stereo unspecified) | 141 to 142 °C |
| N#Cc1ccc(OC2CCN(c3ccncc3)C2)cc1 (stereo unspecified) | 182 to 185 °C |
| CCc1c(-c2ccc(O)cc2)c2cc(COCCN3CCCCC3)c3cccc1n32 | 132 to 134 °C |
| CC(=O)NC1CCC2=C(CC1)C(=O)C(=CC(=O)O)C=C2 (stereo unspecified) | 240 to 243 °C |
| CCOc1cc2c(Nc3cc(OC)c(Cl)cc3Cl)c(C#N)cnc2cc1C#CCCO | 220 to 222 °C |
| COc1ccc(C2OCC(C)(C)C(C(=O)NCCC(=O)O)O2)cc1 (stereo unspecified) | 135 to 136 °C |

| Structure (SMILES) | melting point |
| --- | --- |
| CCCc1c(O)c(C(C)=O)cc(Cl)c1OCCOCCOc1c(C(C)=O)ccc(OCC(=O)O)c1CCC | 89 to 91 °C |
| Cc1cccc(OC(=O)C(=O)c2c[nH]c3ccccc23)c1 | 194 to 197 °C |
| CCCCNc1nn(C(=O)OC)c2c1c(=O)n(CCC)c1ccccc21 | 147 to 149 °C |
| CC(C)S(=O)(=O)c1ccc(S(=O)(=O)C(C)C)nc1 | 181 °C |
| Cc1ccc(C(=O)NCc2ccccc2)cc1-c1nc(S(C)(=O)=O)nc2c1CNC(=O)N2c1c(F)cccc1F | 239 to 241 °C |
| CCCC12CCC3=C(CCc4cc(OC)ccc43)C1CCC2=O (stereo unspecified) | 111 to 113 °C |
| CC(C)C[C@@H](CO)NC(=O)[C@@H](NC(=O)c1ccc(C=O)o1)C(C)C | 39 to 41 °C |
| N#CC12CC(c3ccccc31)c1ccccc12 | 120 to 123 °C |
| COC(=O)C1Cc2cc3c(cc2C(=O)CS1)OCO3 (stereo unspecified) | 165 to 166 °C |
| O=c1cc(N2CCOCC2)cc(-c2ccc(Cl)cc2)o1 | 236 to 237 °C |
| O=C(Oc1ccc(CCN(F)F)cc1)c1ccccc1 | 67 to 67.5 °C |
| CNc1cc(Oc2ccc(Cl)cc2Cn2cncn2)ccc1[N+](=O)[O-] | 150 °C |
| CC(C)(C)C(C)(O)C(CCOc1ccccc1)n1cncn1 (stereo unspecified) | 118 to 120 °C |
| NCc1[nH]c2ccc(Cl)cc2c1-c1c(F)cccc1F | 199 to 200 °C |
| COc1cccc(C(=O)CC(=O)c2cc(NC(C)=O)ccc2O)c1 | 72 to 73 °C |
| Cc1cccc2nc(-c3cc(C(F)F)nn3-c3ccc(S(N)(=O)=O)cc3)sc12 | 264 to 265 °C |
| COCCc1ccc(-c2ccc3c(c2)C=C(C(=O)Nc2ccc(CN(C)C4CCOCC4)cc2)CCS3(=O)=O)cc1 | 216 to 219 °C |
| COc1ccc2c(c1)/C(=C/CNC(C)=O)CCC2 | 92 to 94 °C |
| COCn1c(C)nc2c(O)cc(C(=O)N(C)C)cc21 | 173 to 183 °C |
| O=[N+]([O-])c1ccc2c(Nc3ccncc3)noc2c1 | 296 to 300 °C |
| Cc1c(NC(=O)CC(C)(C)C)cc2c(c1C)OC(C)(C)C2c1ccccc1C(C)C (stereo unspecified) | 188 to 189 °C |
| CCN(CCO)CCCNc1ncc2cc(-c3c(Cl)cccc3Cl)c(N)nc2n1 | 201 to 204 °C |
| COc1ccc2c(c1)c1c3c(c(-c4c(Cl)cccc4Cl)cc1n2CCC(N)=O)C(=O)NC3=O | 261 to 264 °C |
| CS(=O)(=O)O[C@@H]1CCc2c(F)cc(F)cc2C1 | 79 to 80 °C |

| Structure (SMILES) | melting point |
| --- | --- |
| COc1cc(C=NN(C)C)c([N+](=O)[O-])cc1OC | 143 to 145 °C |
| CC(=O)COc1ccc(Cl)cc1C(=O)O | 90 to 91 °C |
| CC(=O)SC1CC(=O)N1C(C(=O)OCc1ccc([N+](=O)[O-])cc1)=P(c1ccccc1)(c1ccccc1)c1ccccc1 (stereo unspecified) | 154 to 155 °C |
| Cc1cc(Cc2cc(C(C)(C)CC(C)(C)C)cc(-n3nc4ccccc4n3)c2O)c(O)c(C(C)(C)C)c1 | 148 °C |
| CC(C)(C)OC(=O)Nc1cc(-c2nnc(CCc3cccc(C(F)(F)F)c3)o2)ccn1 | 256 to 257 °C |
| Cc1cc(C)c(C(O)P(=O)(c2ccccc2)c2ccccc2)c(C)c1 (stereo unspecified) | 152 to 153 °C |
| O=C(O)C(Cc1nnn[nH]1)NC(=O)C(CS)C(F)(F)F (stereo unspecified) | 158 to 161 °C |
| CCC1CCC(C)N(C(=O)CN(C(=O)CNC(=O)Nc2cccc(C)c2)c2ccccc2)C1 (stereo unspecified) | 158 °C |
| Cc1cccc(-c2[nH]c(C(C)(C)C)nc2-c2ccnc(-c3ccc(CN(C)C)cc3)c2)n1 | 187 °C |
| COc1ccc(OC)c2c1CCC(O)(CCO)C2 (stereo unspecified) | 121 to 122 °C |
| CCC(C)(C)NC(=O)C(=O)C(C)(C)C | 36 °C |
| COc1cc2c(O)c(S(=O)(=O)N(C)C)cnc2cc1C | 295 to 297 °C |
| c1ccc(CN(c2ccccc2)c2ccccc2)cc1 | 86 °C |
| COC1=CC(=O)N/C1=C\C(C)C | 140 to 141 °C |
| COc1cc(C(O)c2ccnn2C)c(Cl)c(Cl)c1OC (stereo unspecified) | 149 to 154 °C |
| O=C(Nc1ccc(Cl)cc1)C1=C(O)CS(=O)(=O)N(Cc2ccc(Cl)cc2)c2ccccc21 | 182 to 183 °C |
| C#CCN1CC[C@H](O)C1=O | 89 to 90 °C |
| O=S(=O)(c1ccccc1)c1ccc2c(c1)OCCN2CCN1C=CNC1 | 61.5 to 64.4 °C |
| OCc1nc2n(n1)-c1ccccc1N(c1cccc(C(F)(F)F)c1)C2 | 168 to 171 °C |
| CCCn1c(=O)c2[nH]c(C(C)=Cc3ccccc3)nc2n(CCC)c1=O | 194 to 196 °C |
| COc1cc(N2CCC(=O)CC2)ncn1 | 111 to 114 °C |
| COc1cc(OC)c(/C=C/S(=O)(=O)CS(=O)(=O)/C=C/c2c(OC)cc(OC)cc2OC)c(OC)c1 | 140 to 142 °C |
| CC1(C)[C@H](/C=C/Cl)[C@@H]1C(=O)O (relative stereo) | 103 to 105 °C |
| COc1ccc(COCC(O)CO)cc1 (stereo unspecified) | 51 to 53 °C |

| Structure (SMILES) | melting point |
| --- | --- |
| CC(C)(C)c1ccc(C(=O)Nc2cn3cc(-c4cnc[nH]4)ccc3n2)cc1 | 297 to 298 °C |
| CSc1c(C)[nH]c2cccc([N+](=O)[O-])c12 | 148 to 150 °C |
| CN(C)C1(c2ccccc2)CCC(CNC(=O)N2CC=C(c3c[nH]c4ccccc34)CC2)CC1 (stereo unspecified) | 112 to 115 °C |
| CCOC(=O)COc1cc(C2COc3c(C)c(C)c(NC(=O)CC(C)(C)C)c(C)c32)ccc1C(C)C (stereo unspecified) | 149 to 150 °C |
| Cc1cc(-c2cc(COS(C)(=O)=O)c(=O)n(CC(C)C)n2)ccc1F | 115 to 117 °C |
| C/C=C(\Br)C(=O)Nc1cccc(F)c1 | 44 to 45.5 °C |
| CC(=O)OCC1OC(n2cc(C3=C(c4cn(C(=O)OC(C)(C)C)c5ccccc45)C(=O)N(C)C3=O)c3cccnc32)C(OC(C)=O)C(OC(C)=O)C1OC(C)=O (stereo unspecified) | 89 to 91 °C |
| Cc1cnn(-c2ccc(C(=O)N3Cc4cccn4Cc4ccccc43)c(Cl)n2)c1 | 155 to 156 °C |
| COc1ccccc1-c1nc(N)ncc1-c1ccc(=O)n(C(C)C)n1 | 170 °C |
| O[C@@H](CNCCOc1ccc2cc(-c3ccon3)oc2c1)COc1ccccc1 | 107 to 110 °C |
| COc1ccc(N2C[C@@](C)(COC(=O)c3ccc([N+](=O)[O-])cc3)OC2=O)cc1 | 156 to 158 °C |
| NC(=O)N1C(=O)C(C(=O)c2sccc2Br)c2cc(Cl)ccc21 (stereo unspecified) | 216 to 217 °C |
| CC(C)NC(=O)NCCc1c2c3c(nc(N)c2nn1C)CCCC3 | 237 to 238 °C |
| CCOC(=O)c1sc(N)nc1-c1ccc(F)cc1 | 205 to 208 °C |
| Cc1c(NC(=O)c2cccc(OCCN)c2)c2ccccn2c1C(=O)c1ccc(NC(=O)C(F)(F)F)c(C(=O)OCc2ccccc2)c1 | 219 °C |
| CCCc1cc(C(=O)CCCC(=O)O)ccc1OC | 105 to 106 °C |
| CC12CCC3C(CCC4CC(O[Si](c5ccccc5)(c5ccccc5)C(C)(C)C)CCC43C)C1CCC2C=C(Br)Br (stereo unspecified) | 69 to 71 °C |
| O[C@H]1CC[C@H](Nc2nccc(-n3ncc4c(Br)cccc43)n2)CC1 | 200 to 202 °C |
| CC(C)(C)OC(=O)C1CSC(c2cccc(F)c2F)N1 (mixture of isomers) | 120 °C |
| CC1(C)CC(=O)Nc2cc3nc(-c4ccc(C#N)cc4)[nH]c3cc21 | 228 to 233 °C |
| C=C1CCN(S(=O)(=O)c2ccc(Cl)c(C(=O)O)c2)CC1 | 157 to 160 °C |
| CCCCCCCCCCCCCCCCCCOc1cccc(C(=O)OC)c1OCCCOc1ccc(OCc2ccccc2)cc1 | 43 to 45 °C |
| O=C(CN1CCN(C(=O)Nc2ccc(C(F)(F)F)cc2)CC1)N1CCC2(CC1)Cn1cc([N+](=O)[O-])nc1O2 | 153 to 155 °C |
| O=C(O[C@H]1Cc2c(O)cc(O)cc2O[C@@H]1c1ccc(O)cc1)c1cc(O)c(O)c(O)c1 | 96 to 98 °C |
